{"source": "patent US20070259837A1", "about": "“Use of Non-Glucocorticoid Steroids for the Treatment of Muscular Dystrophy” (SANTHERA PHARMACEUTICALS (SCHWEIZ) AG, priority 2004, published 2007)", "key": {"[1]": {"tested_on": "utrophin protein in human muscle cells derived from DMD patients", "settings": "cited from earlier work; for increase of utrophin protein content in human muscle cells (reported for glucocorticoids): Courdier-Fruh et al. 2002"}, "[2]": {"tested_on": "utrophin protein in human muscle cells derived from DMD patients", "test": "Cell-based ELISA for normalized utrophin protein level in primary human myotube cultures", "settings": "for % UTR vs. PDN (normalized utrophin protein as % of PDN-treated sister cultures): same experiment; for activity at 0.5 µM: Myotube, read-out: % UTR vs. DMSO (normalized utrophin protein over DMSO-solvent treated control)", "description": "The method used to detect and determine utrophin-inducing activity of non-glucocorticoid steroids has been described previously (Courdier-Fruh, I., Barman, L., Briguet, A. & Meier, T.; 2002, Neuromuscul. Disord.; 12 Suppl:S95). Briefly, primary human muscle cell cultures were prepared according to standard protocols (Askanas V, Kwan H, Alvarez R B, Engel W K, Kobayashi T, Martinuzzi A, Hawkins E F., 1987, J Neurocytol., 16:523-537). Test compounds and the glucocorticoid 6α-methylprednisolone-21 sodium succinate (Pharmacia & Upjohn; Solu-Medrol®, PDN) as reference compound were applied at 500 nM final concentration as soon as myoblasts started to differentiate into myotubes. Incubation with the test compound was ended as soon as well differentiated myotubes have formed, typically resulting in an incubation time with a test compound for 3-7 days.\nNormalized concentrations of utrophin protein in human muscle cells cultured in microtiter plates were determined by a cell-based enzyme-linked immunosorbent assay (ELISA) procedure that allows a successive readout for the cell density and utrophin protein level. For calibration, the cell density and differentiation was determined by absorbance measurements of the total dehydrogenase enzyme activity in each well using the colorimetric CellTiter 96®AQ One Solution Reagent Proliferation Assay (Promega) according to the manufacturer's recommendation. Subsequently, cells were fixed, washed, permeabilized with 0.5% (v/v) Triton X-100 and unspecific antibody binding-sites were blocked by standard procedures. Utrophin protein levels were determined immunologically with utrophin-specific primary antibodies (mouse monoclonal antibody to the amino terminal portion of utrophin, NCL-DRP2, Novocastra Laboratories) and with appropriate peroxidase-coupled secondary antibodies using QuantaBlu™ Fluorogenic Peroxidase Substrate Kit (Pierce) for detection. Fluorescence measurements were carried out with a multilabel counter (Wallac) at λex=325 nm and at λem=420 nm. The primary readout of this signal is presented in arbitrary units. For calibration, the arbitrary units representing the relative utrophin protein content of each well were divided by the corresponding cell-titer absorbance value to correct for cell density. For comparison between experiments, the cell-titer corrected readout for utrophin protein content in each well was expressed in percent of solvent treated control cultures (set to 100%). PDN was included in all experiments as reference glucocorticoid, N=3-5 for each compound tested.\nNon-glucocorticoid test compounds, applied in a concentration of 500 nM, were regarded as “positive” in case the increase in the level of utrophin protein was at least 20% (mean value) over control cultures treated with the appropriate dilution of DMSO solvent as control and containing no test compound.\nA range of different pharmaceutical compounds were tested for their ability to increase levels of utrophin protein in primary human myotube cultures. The cell-based ELISA protocol used to detect the level of utrophin protein is provided above and described in Courdier-Fruh, I., Barman, L., Briguet, A. & Meier, T, 2002, Neuromuscul. Disord.: 12, Suppl:S95. Briefly, fixed and permeabilized human muscle cells derived from DMD patients and cultured in 96-well cell culture plates were incubated with antibodies specific for utrophin at a dilution of 1:1'000 in blocking solution (phosphate buffered saline (PBS) supplemented with 2% fetal calf serum and 1% bovine serum albumin) for 10-15 hours at 4° C. Following several washing steps with 0.1% Triton X-100 in PBS, peroxidase-coupled secondary antibodies diluted 1:3'000 in blocking solution were applied in each well for 1-2 hours at room temperature. Signal detection, data acquisition and normalization was performed as described above and in Courdier-Fruh, I., Barman, L., Briguet, A. & Meier, T, 2002, Neuromuscul. Disord.: 12, Suppl:S95. […]"}, "[3]": {"settings": "500 nM compound, human muscle cultures, mean value, N=3-6"}}, "note": "Read-outs that look alike come from different tables or passages of the source.", "data": [{"molecule": "C[C@H]1C[C@@H]2[C@H]([C@@H](O)C[C@@]3(C)[C@H]2CC[C@]3(O)C(=O)CO)[C@@]2(C)C=CC(=O)C=C12", "note": "[α-methylprednisolone]", "values": [{"measurement": "increase of utrophin protein content in human muscle cells (reported for glucocorticoids)", "setting": "[1]", "value": "increase of utrophin protein content"}]}, {"molecule": "CC1(C)O[C@@H]2C[C@H]3[C@@H]4C[C@H](F)C5=CC(=O)C=C[C@]5(C)[C@@]4(F)[C@@H](O)C[C@]3(C)[C@]2(C(=O)CO)O1", "note": "[fluocinolone acetonide]", "values": [{"measurement": "increase of utrophin protein content in human muscle cells (reported for glucocorticoids)", "setting": "[1]", "value": "increase of utrophin protein content"}]}, {"molecule": "CC1(C)O[C@@H]2C[C@H]3[C@@H]4CCC5=CC(=O)CC[C@]5(C)[C@@]4(F)[C@@H](O)C[C@]3(C)[C@]2(C(=O)CCl)O1", "note": "[halcinonide]", "values": [{"measurement": "increase of utrophin protein content in human muscle cells (reported for glucocorticoids)", "setting": "[1]", "value": "increase of utrophin protein content"}]}, {"molecule": "C[C@@H]1C[C@H]2[C@@H]3CCC4=CC(=O)C=C[C@]4(C)[C@@]3(F)[C@@H](O)C[C@]2(C)[C@@]1(O)C(=O)CO", "note": "[dexametasone]", "values": [{"measurement": "increase of utrophin protein content in human muscle cells (reported for glucocorticoids)", "setting": "[1]", "value": "increase of utrophin protein content"}]}, {"molecule": "C[C@H]1C[C@@H]2[C@H]([C@@H](O)C[C@@]3(C)[C@H]2CC[C@]3(O)C(=O)COC(=O)CCC(=O)[O-])[C@@]2(C)C=CC(=O)C=C12.[Na+]", "note": "[PDN, 6α-methylprednisolone-21 sodium succinate, reference compound]", "values": [{"measurement": "utrophin protein levels normalized to cell density (UTR, relative units) compared to solvent-treated control (DMSO)", "setting": "[2]; human DMD-patient derived muscle cells, 500 nM, FIG. 1 / FIG. 2, N=5-6", "value": "up to 200%"}, {"measurement": "inhibition of PDN-mediated utrophin increase by RU38486", "setting": "[1]; simultaneous exposure to RU38468, previous experiments (Courdier-Fruh 2002)", "value": "could be inhibited"}]}, {"molecule": "CCC(=O)O[C@H]1CCC2C3CCC4=CC(=O)CC[C@]4(C)C3CC[C@@]21C", "note": "(some centres unmarked) [Example 48, Testosterone propionate]", "values": [{"measurement": "% UTR vs. PDN (normalized utrophin protein as % of PDN-treated sister cultures)", "setting": "[2]; [3]", "value": 98, "unit": "%"}, {"measurement": "activity at 0.5 µM", "setting": "[2]; Homo sapiens", "value": 122, "unit": "%"}]}, {"molecule": "CC(=O)[C@H]1CCC2C3CCC4=CC(=O)CC[C@]4(C)C3[C@H](O)C[C@@]21C", "note": "(some centres unmarked) [Example 58]", "values": [{"measurement": "% UTR vs. PDN (normalized utrophin protein as % of PDN-treated sister cultures)", "setting": "[2]; [3]", "value": 102, "unit": "%"}, {"measurement": "activity at 0.5 µM", "setting": "[2]; Homo sapiens", "value": 133, "unit": "%"}]}, {"molecule": "C[C@]12CCC3c4ccc(OCc5ccccc5)cc4CCC3C1C[C@@H](O)[C@@H]2O", "note": "(some centres unmarked) [Example 72]", "values": [{"measurement": "% UTR vs. PDN (normalized utrophin protein as % of PDN-treated sister cultures)", "setting": "[2]; [3]", "value": 105, "unit": "%"}, {"measurement": "activity at 0.5 µM", "setting": "[2]; Homo sapiens", "value": 132, "unit": "%"}]}, {"molecule": "CC(C)C/C=C\\C(C)[C@H]1CC[C@@]2(C)C3=CC=C4C(C)(C)[C@@H](O)CC[C@]4(C)C3CC[C@]12C", "note": "(some centres unmarked) [Example 36]", "values": [{"measurement": "% UTR vs. PDN (normalized utrophin protein as % of PDN-treated sister cultures)", "setting": "[2]; [3]", "value": 96, "unit": "%"}, {"measurement": "activity at 0.5 µM", "setting": "[2]; Homo sapiens", "value": 122, "unit": "%"}]}, {"molecule": "C#C[C@]1(OC(C)=O)CC[C@H]2[C@@H]3CCC4=CC(=O)CC[C@@H]4[C@H]3CC[C@@]21C", "note": "[Example 42, Norethisterone acetate]", "values": [{"measurement": "% UTR vs. PDN (normalized utrophin protein as % of PDN-treated sister cultures)", "setting": "[2]; [3]", "value": 101, "unit": "%"}, {"measurement": "activity at 0.5 µM", "setting": "[2]; [3]", "value": 128, "unit": "%"}]}, {"molecule": "C[C@]12CC[C@H](OC(=O)c3ccccc3)CC1=CCC1C2CC[C@@]2(C)C1CC[C@@H]2NC(=O)c1ccccc1", "note": "(some centres unmarked) [Example 39]", "values": [{"measurement": "% UTR vs. PDN (normalized utrophin protein as % of PDN-treated sister cultures)", "setting": "[2]; [3]", "value": 106, "unit": "%"}, {"measurement": "activity at 0.5 µM", "setting": "[2]; Homo sapiens", "value": 121, "unit": "%"}]}, {"molecule": "CC1CC[C@@]2(OC1)O[C@H]1C[C@H]3[C@@H]4CC[C@H]5C[C@@H](O)CC[C@]5(C)C4CC[C@]3(C)C1[C@@H]2C", "note": "(some centres unmarked) [Example 29]", "values": [{"measurement": "% UTR vs. PDN (normalized utrophin protein as % of PDN-treated sister cultures)", "setting": "[2]; [3]", "value": 91, "unit": "%"}, {"measurement": "activity at 0.5 µM", "setting": "[2]; Homo sapiens", "value": 120, "unit": "%"}]}, {"molecule": "CC(C)CCCC(C)[C@H]1CCC2C3CC[C@H]4CC(=O)CC[C@]4(C)C3CC[C@@]21C", "note": "(some centres unmarked) [Example 32]", "values": [{"measurement": "% UTR vs. PDN (normalized utrophin protein as % of PDN-treated sister cultures)", "setting": "[2]; [3]", "value": 104, "unit": "%"}, {"measurement": "activity at 0.5 µM", "setting": "[2]; Homo sapiens", "value": 132, "unit": "%"}]}, {"molecule": "COC(=O)CCC(=O)O[C@H]1CC[C@]2(C)C3C(=O)[C@@H](O)[C@]4(C)C5[C@H](C[C@H]4[C@@H]3CC[C@H]2C1)O[C@]1(CCC(C)CO1)[C@H]5C", "note": "(some centres unmarked) [Example 26]", "values": [{"measurement": "% UTR vs. PDN (normalized utrophin protein as % of PDN-treated sister cultures)", "setting": "[2]; [3]", "value": 98, "unit": "%"}, {"measurement": "activity at 0.5 µM", "setting": "[2]; Homo sapiens", "value": 123, "unit": "%"}]}, {"molecule": "C[C@]12CCC3c4ccc(OC(=O)c5ccccc5)cc4CCC3C1CCC2=O", "note": "(some centres unmarked) [Example 74]", "values": [{"measurement": "% UTR vs. PDN (normalized utrophin protein as % of PDN-treated sister cultures)", "setting": "[2]; [3]", "value": 103, "unit": "%"}, {"measurement": "activity at 0.5 µM", "setting": "[2]; Homo sapiens", "value": 124, "unit": "%"}]}, {"molecule": "CC(=O)O[C@H]1CCC2C3CCc4cc(O)ccc4C3CC[C@@]21C", "note": "(some centres unmarked) [Example 77]", "values": [{"measurement": "% UTR vs. PDN (normalized utrophin protein as % of PDN-treated sister cultures)", "setting": "[2]; [3]", "value": 102, "unit": "%"}, {"measurement": "activity at 0.5 µM", "setting": "[2]; Homo sapiens", "value": 128, "unit": "%"}]}, {"molecule": "C#C[C@]1(O)CCC2C3CCC4=CC(=O)CC[C@@H]4C3CC[C@@]21CC", "note": "(some centres unmarked) [Example 41, Norgestrel]", "values": [{"measurement": "% UTR vs. PDN (normalized utrophin protein as % of PDN-treated sister cultures)", "setting": "[2]; [3]", "value": 103, "unit": "%"}, {"measurement": "activity at 0.5 µM", "setting": "[2]; [3]", "value": 130, "unit": "%"}]}, {"molecule": "CC(=O)OCC(=O)[C@@]12O[C@@H]1CC1C3CC[C@@H]4C[C@H](O)CC[C@]4(C)C3CC[C@@]12C", "note": "(some centres unmarked) [Example 68]", "values": [{"measurement": "% UTR vs. PDN (normalized utrophin protein as % of PDN-treated sister cultures)", "setting": "[2]; [3]", "value": 95, "unit": "%"}, {"measurement": "activity at 0.5 µM", "setting": "[2]; Homo sapiens", "value": 125, "unit": "%"}]}, {"molecule": "C[C@]12CCC3C(CC[C@H]4C[C@@H](OC(=O)c5ccccc5)CC[C@]34C)C1CC[C@@H]2OC(=O)c1ccccc1", "note": "(some centres unmarked) [Example 38]", "values": [{"measurement": "% UTR vs. PDN (normalized utrophin protein as % of PDN-treated sister cultures)", "setting": "[2]; [3]", "value": 108, "unit": "%"}, {"measurement": "activity at 0.5 µM", "setting": "[2]; Homo sapiens", "value": 126, "unit": "%"}]}, {"molecule": "C[C@]12CC(=O)C3C(CC[C@H]4C[C@@H](O)CC[C@]34C)C1CCC2=O", "note": "(some centres unmarked) [Example 49]", "values": [{"measurement": "% UTR vs. PDN (normalized utrophin protein as % of PDN-treated sister cultures)", "setting": "[2]; [3]", "value": 97, "unit": "%"}, {"measurement": "activity at 0.5 µM", "setting": "[2]; Homo sapiens", "value": 127, "unit": "%"}]}, {"molecule": "CC(CCC(=O)O)C1CCC2C3C(=O)C[C@@H]4CC(=O)CC[C@]4(C)C3CC(=O)[C@]12C", "note": "(some centres unmarked) [Example 15]", "values": [{"measurement": "% UTR vs. PDN (normalized utrophin protein as % of PDN-treated sister cultures)", "setting": "[2]; [3]", "value": 92, "unit": "%"}, {"measurement": "activity at 0.5 µM", "setting": "[2]; [3]", "value": 117, "unit": "%"}]}]}
